Assays:
Assay in all cases: radiometric filter-binding kinase assay, Kinase HotSpot
Conditions in all cases: compound 0.5 µM; ATP 10 µM
CAMK1 (human) = CAMK1 (human) (UniProt Q14012)
MAP3K7 TAB1 (human) = MAP3K7 TAB1 (human) (UniProt O43318+Q15750)
MAPK10 (human) = MAPK10 (human) (UniProt P53779)
HIPK3 (human) = HIPK3 (human) (UniProt Q9H422)
NUAK2 (human) = NUAK2 (human) (UniProt Q9H093)
WNK3 (human) = WNK3 (human) (UniProt Q9BYP7)
MAP4K4 (human) = MAP4K4 (human) (UniProt O95819)
MAPKAPK3 (human) = MAPKAPK3 (human) (UniProt Q16644)
MAP4K5 (human) = MAP4K5 (human) (UniProt Q9Y4K4)
GSK3B (human) = GSK3B (human) (UniProt P49841)
EPHA3 (human) = EPHA3 (human) (UniProt P29320)
PTK6 (human) = PTK6 (human) (UniProt Q13882)
PRKACA (human) = PRKACA (human) (UniProt P17612)
CHUK (human) = CHUK (human) (UniProt O15111)
MAP3K8 (human) = MAP3K8 (human) (UniProt P41279)
PRKCB2 (human) = PRKCB2 (human) (UniProt P05771)
DMPK (human) = DMPK (human) (UniProt Q09013)
CDK6 CCND3 (human) = CDK6 CCND3 (human) (UniProt P30281+Q00534)
MAPK11 (human) = MAPK11 (human) (UniProt Q15759)
Sequence of MAPK11 (human) (Q15759 whole entry, looked up): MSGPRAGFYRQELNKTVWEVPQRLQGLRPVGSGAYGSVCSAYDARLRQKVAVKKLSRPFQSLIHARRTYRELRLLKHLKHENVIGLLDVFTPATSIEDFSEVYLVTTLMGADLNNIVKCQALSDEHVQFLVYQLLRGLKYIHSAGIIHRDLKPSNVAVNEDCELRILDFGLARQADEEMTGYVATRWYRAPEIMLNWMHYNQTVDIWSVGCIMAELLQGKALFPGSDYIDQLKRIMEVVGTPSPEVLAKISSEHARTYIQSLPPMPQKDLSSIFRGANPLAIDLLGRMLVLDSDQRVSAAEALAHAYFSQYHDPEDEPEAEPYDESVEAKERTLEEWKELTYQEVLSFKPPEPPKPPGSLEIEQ

DAPK3 (human) = DAPK3 (human) (UniProt O43293)
CLK3 (human) = CLK3 (human) (UniProt P49761)
Sequence of CLK3 (human) (P49761 whole entry, looked up): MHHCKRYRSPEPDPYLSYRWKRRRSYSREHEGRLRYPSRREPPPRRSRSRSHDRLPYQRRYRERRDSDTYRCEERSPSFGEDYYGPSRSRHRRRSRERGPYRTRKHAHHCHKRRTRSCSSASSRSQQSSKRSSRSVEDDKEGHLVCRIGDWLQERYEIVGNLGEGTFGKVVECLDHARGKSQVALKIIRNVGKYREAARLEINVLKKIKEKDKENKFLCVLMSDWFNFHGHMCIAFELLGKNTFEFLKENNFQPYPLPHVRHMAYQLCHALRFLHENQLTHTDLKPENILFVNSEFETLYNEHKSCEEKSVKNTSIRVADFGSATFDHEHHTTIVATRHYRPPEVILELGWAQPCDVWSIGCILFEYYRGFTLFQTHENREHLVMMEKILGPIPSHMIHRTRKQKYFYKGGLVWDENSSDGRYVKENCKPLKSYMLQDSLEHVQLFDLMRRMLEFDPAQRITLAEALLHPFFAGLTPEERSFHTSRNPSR

SYK (human) = SYK (human) (UniProt P43405)
SRPK2 (human) = SRPK2 (human) (UniProt P78362)
PTK2B (human) = PTK2B (human) (UniProt Q14289)
PRKCH (human) = PRKCH (human) (UniProt P24723)
Sequence of PRKCH (human) (P24723 whole entry, looked up): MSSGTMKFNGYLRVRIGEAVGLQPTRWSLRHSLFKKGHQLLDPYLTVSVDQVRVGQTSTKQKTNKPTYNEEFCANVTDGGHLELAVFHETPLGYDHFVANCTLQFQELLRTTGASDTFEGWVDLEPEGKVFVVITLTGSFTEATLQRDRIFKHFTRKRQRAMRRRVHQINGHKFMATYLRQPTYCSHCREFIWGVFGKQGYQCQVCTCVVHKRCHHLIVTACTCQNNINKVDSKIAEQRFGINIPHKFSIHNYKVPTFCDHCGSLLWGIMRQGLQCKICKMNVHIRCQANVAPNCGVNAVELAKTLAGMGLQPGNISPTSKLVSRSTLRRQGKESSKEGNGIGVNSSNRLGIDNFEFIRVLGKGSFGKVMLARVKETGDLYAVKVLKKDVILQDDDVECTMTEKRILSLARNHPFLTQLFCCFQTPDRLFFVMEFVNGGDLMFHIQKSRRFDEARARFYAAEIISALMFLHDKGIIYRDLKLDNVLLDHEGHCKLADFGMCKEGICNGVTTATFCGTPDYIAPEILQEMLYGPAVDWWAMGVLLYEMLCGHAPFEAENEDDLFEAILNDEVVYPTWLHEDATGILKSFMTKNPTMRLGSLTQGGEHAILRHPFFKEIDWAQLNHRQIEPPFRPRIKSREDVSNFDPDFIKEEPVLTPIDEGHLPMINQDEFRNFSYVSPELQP

IKBKB (human) = IKBKB (human) (UniProt O14920)
STK24 (human) = STK24 (human) (UniProt Q9Y6E0)
Sequence of STK24 (human) (Q9Y6E0 whole entry, looked up): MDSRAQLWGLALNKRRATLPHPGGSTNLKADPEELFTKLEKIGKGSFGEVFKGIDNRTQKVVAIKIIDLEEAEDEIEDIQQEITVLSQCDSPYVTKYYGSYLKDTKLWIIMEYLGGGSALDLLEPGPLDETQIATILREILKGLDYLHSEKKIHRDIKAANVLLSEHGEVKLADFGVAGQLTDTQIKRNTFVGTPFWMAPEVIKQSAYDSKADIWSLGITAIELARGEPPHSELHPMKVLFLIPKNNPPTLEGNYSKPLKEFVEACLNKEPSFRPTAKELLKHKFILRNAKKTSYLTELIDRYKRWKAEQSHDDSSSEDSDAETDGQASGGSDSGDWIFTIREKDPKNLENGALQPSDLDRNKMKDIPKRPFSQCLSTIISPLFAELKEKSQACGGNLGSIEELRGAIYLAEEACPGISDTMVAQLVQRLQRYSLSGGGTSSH

RAF1 (human) = RAF1 (human) (UniProt P04049)
BRAF (human) = BRAF (human) (UniProt P15056)
RPS6KA6 KD1 KD2 (human) = RPS6KA6 KD1 KD2 (human) (UniProt Q9UK32)
CSNK1D (human) = CSNK1D (human) (UniProt P48730)
NEK9 (human) = NEK9 (human) (UniProt Q8TD19)
Sequence of NEK9 (human) (Q8TD19 whole entry, looked up): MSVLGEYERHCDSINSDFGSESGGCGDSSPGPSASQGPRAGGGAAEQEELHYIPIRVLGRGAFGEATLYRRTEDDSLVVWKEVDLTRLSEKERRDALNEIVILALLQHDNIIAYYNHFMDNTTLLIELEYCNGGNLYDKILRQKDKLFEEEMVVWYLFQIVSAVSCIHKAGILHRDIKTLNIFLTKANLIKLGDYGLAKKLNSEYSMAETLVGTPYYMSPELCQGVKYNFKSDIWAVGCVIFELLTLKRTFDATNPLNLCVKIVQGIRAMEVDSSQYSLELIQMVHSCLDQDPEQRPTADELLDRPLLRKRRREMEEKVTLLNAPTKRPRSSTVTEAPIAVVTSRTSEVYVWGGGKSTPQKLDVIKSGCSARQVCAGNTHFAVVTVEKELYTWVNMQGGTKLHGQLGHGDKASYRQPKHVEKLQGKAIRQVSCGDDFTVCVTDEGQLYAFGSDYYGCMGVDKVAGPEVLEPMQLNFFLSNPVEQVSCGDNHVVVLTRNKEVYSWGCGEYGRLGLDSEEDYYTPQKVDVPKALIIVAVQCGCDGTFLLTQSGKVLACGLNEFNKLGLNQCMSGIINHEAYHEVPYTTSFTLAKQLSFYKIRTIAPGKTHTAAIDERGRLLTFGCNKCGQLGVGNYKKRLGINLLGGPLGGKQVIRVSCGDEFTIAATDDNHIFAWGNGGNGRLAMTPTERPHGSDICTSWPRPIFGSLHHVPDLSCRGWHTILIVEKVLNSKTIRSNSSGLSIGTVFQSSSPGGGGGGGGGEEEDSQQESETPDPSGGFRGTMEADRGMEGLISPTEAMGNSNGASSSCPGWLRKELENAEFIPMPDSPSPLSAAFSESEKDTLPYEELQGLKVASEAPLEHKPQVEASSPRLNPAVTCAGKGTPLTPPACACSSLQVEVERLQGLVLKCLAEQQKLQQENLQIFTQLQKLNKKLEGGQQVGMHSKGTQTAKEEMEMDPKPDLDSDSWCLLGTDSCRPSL

PAK1 (human) = PAK1 (human) (UniProt Q13153)
IKBKE (human) = IKBKE (human) (UniProt Q14164)
Sequence of IKBKE (human) (Q14164 whole entry, looked up): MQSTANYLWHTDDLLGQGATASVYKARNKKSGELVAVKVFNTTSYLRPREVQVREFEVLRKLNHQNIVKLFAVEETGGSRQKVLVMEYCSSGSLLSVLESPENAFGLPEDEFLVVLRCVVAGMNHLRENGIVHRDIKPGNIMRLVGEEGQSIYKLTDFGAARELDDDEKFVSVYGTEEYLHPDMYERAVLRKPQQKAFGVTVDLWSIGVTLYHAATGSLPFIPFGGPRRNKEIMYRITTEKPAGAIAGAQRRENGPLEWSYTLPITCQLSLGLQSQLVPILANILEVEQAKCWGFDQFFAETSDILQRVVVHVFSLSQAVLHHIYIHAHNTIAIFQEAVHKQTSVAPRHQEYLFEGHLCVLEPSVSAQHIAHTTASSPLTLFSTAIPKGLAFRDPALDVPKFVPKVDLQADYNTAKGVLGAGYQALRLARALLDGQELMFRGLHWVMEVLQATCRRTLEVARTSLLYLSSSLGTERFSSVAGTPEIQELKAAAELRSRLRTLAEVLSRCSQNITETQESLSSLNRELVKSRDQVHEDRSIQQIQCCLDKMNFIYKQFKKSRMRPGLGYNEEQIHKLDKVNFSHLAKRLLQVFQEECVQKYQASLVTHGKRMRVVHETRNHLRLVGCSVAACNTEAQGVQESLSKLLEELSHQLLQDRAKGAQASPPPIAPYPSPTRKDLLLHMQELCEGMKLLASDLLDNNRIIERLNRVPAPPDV

MAPK3 (human) = MAPK3 (human) (UniProt P27361)
TGFBR2 (human) = TGFBR2 (human) (UniProt P37173)
PDPK1 (human) = PDPK1 (human) (UniProt O15530)
CDK1 CCNA2 (human) = CDK1 CCNA2 (human) (UniProt P06493+P20248)
ULK3 (human) = ULK3 (human) (UniProt Q6PHR2)
EPHA6 (human) = EPHA6 (human) (UniProt Q9UF33)
STK38 (human) = STK38 (human) (UniProt Q15208)

Sequence of HIPK3 (human) (Q9H422 whole entry, looked up): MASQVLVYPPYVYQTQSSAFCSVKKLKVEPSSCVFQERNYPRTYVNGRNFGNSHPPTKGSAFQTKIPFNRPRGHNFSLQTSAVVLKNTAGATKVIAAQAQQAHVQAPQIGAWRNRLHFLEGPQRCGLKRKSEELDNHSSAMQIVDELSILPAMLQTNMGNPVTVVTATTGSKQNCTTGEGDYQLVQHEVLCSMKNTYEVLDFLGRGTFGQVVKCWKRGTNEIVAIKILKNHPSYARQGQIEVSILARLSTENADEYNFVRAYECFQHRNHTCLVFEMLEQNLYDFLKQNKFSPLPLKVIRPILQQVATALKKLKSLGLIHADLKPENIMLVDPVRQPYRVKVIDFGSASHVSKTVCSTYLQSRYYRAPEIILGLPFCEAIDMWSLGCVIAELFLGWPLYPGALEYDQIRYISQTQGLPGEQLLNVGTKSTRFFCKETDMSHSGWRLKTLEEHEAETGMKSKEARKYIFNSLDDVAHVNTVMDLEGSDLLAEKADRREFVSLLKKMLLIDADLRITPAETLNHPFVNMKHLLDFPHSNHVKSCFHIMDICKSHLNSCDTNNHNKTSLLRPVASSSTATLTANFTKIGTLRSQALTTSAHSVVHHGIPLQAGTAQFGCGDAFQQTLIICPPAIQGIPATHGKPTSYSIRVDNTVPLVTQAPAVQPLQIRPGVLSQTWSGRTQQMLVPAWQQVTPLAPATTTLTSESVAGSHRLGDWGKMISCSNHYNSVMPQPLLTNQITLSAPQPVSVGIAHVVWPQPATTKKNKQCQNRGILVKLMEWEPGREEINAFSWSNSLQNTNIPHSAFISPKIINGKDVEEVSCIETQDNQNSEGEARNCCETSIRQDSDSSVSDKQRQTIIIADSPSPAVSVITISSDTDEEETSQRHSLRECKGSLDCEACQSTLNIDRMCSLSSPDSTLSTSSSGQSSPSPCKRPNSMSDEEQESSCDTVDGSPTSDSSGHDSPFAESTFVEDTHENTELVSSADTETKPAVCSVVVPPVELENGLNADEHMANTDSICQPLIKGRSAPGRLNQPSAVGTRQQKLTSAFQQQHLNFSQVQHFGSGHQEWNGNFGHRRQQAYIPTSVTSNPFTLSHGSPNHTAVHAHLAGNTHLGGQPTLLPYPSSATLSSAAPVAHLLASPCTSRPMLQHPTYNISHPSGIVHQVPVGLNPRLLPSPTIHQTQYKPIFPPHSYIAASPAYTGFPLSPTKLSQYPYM

Row | SMILES | residual activity (CAMK1 (human)) [%] | residual activity (MAP3K7 TAB1 (human)) [%] | residual activity (MAPK10 (human)) [%] | residual activity (HIPK3 (human)) [%] | residual activity (NUAK2 (human)) [%] | residual activity (WNK3 (human)) [%] | residual activity (MAP4K4 (human)) [%] | residual activity (MAPKAPK3 (human)) [%] | residual activity (GSK3B (human)) [%] | residual activity (EPHA3 (human)) [%] | residual activity (PTK6 (human)) [%] | residual activity (PRKACA (human)) [%] | residual activity (CHUK (human)) [%] | residual activity (MAP3K8 (human)) [%] | residual activity (PRKCB2 (human)) [%] | residual activity (DMPK (human)) [%] | residual activity (CDK6 CCND3 (human)) [%] | residual activity (MAPK11 (human)) [%] | residual activity (DAPK3 (human)) [%] | residual activity (CLK3 (human)) [%] | further results
1 | O=C(c1cc2cc(O)ccc2[nH]1)c1cc2cc(O)ccc2[nH]1 | 97.4 | 79.5 | 91.6 | 97.3 | 95.7 | 74.6 | 6.63 | 91.2 | 78.7 | 101 | 91.9 | 107 | 103 | 93 | 98.9 | 96.9 | 50.3 | 95.7 | 104 | 24.8 | residual activity (MAP4K5 (human)): 28.7%; residual activity (SYK (human)): 72%; residual activity (SRPK2 (human)): 97.1%; residual activity (PTK2B (human)): 85.5%; residual activity (PRKCH (human)): 76.3%; residual activity (IKBKB (human)): 91.3%; residual activity (STK24 (human)): 70.4%; residual activity (RAF1 (human)): 104%; residual activity (BRAF (human)): 97.4%; residual activity (RPS6KA6 KD1 KD2 (human)): 26.7%; residual activity (CSNK1D (human)): 92.5%; residual activity (NEK9 (human)): 93.6%; residual activity (PAK1 (human)): 94.6%; residual activity (IKBKE (human)): 81.6%; residual activity (MAPK3 (human)): 107%; residual activity (TGFBR2 (human)): 123%; residual activity (PDPK1 (human)): 97.2%; residual activity (CDK1 CCNA2 (human)): 88.2%
2 | Cn1c2ccccc2c2c3c(c4c5ccccc5n(CCC#N)c4c21)CNC3=O | 94.2 | 25.4 | 94.5 | 29.8 | 40.5 | 93.1 | 0.433 | 83.7 | 38.9 | 97.9 | 38.7 | 83.7 | 102 | 111 | 9.73 | 101 | 52.1 | 99.5 | 93.6 | 23.1 | residual activity (MAP4K5 (human)): 4.18%; residual activity (SYK (human)): 14.6%; residual activity (SRPK2 (human)): 95%; residual activity (PTK2B (human)): 26.7%; residual activity (PRKCH (human)): 35.3%; residual activity (IKBKB (human)): 90.4%; residual activity (STK24 (human)): 62.8%; residual activity (RAF1 (human)): 111%; residual activity (BRAF (human)): 110%; residual activity (RPS6KA6 KD1 KD2 (human)): 4.2%; residual activity (CSNK1D (human)): 97.5%; residual activity (NEK9 (human)): 96.9%; residual activity (PAK1 (human)): 83.3%; residual activity (IKBKE (human)): 69.4%; residual activity (MAPK3 (human)): 72.6%; residual activity (TGFBR2 (human)): 117%; residual activity (PDPK1 (human)): 63.2%; residual activity (CDK1 CCNA2 (human)): 55.5%
3 | COc1ccc2c(c1)/C(=C/c1cnc[nH]1)C(O)=N2 | 103 | 63.7 | 105 | 101 | 116 | 88.5 | 19.4 | 102 | 35.4 | 93.3 | 87.7 | 99.9 | 110 | 91.1 | 110 | 104 | 28 | 103 | 101 | 103 | residual activity (ULK3 (human)): 67.9%; residual activity (SYK (human)): 93.9%; residual activity (EPHA6 (human)): 91.3%; residual activity (STK38 (human)): 86.2%; residual activity (SRPK2 (human)): 101%; residual activity (PRKCH (human)): 111%; residual activity (IKBKB (human)): 94.9%; residual activity (STK24 (human)): 53.1%; residual activity (RAF1 (human)): 98.3%; residual activity (BRAF (human)): 98.4%; residual activity (RPS6KA6 KD1 KD2 (human)): 48.8%; residual activity (CSNK1D (human)): 93.6%; residual activity (NEK9 (human)): 83.2%; residual activity (PAK1 (human)): 97.8%; residual activity (IKBKE (human)): 92.5%; residual activity (MAPK3 (human)): 87.2%; residual activity (TGFBR2 (human)): 107%; residual activity (PDPK1 (human)): 97.8%; residual activity (CDK1 CCNA2 (human)): 43.7%
